# Data from PMC9238401, “Peptide Conjugates Derived from flg15, Pep13, and PIP1 That Are Active against Plant-Pathogenic Bacteria and Trigger Plant Defense Responses” (Applied and Environmental Microbiology, 2022).
# “Also recorded” adds a separate entry of the source. Non-standard residues stand in square brackets, D forms with d. Residues, ends and D or L forms follow the SMILES beside them. *: point of attachment. Butyryl = CCCC(=O)*
# Columns and labels:
# [1] = HPLC retention time as indicator of relative hydrophobicity; assay type: physicochemical; conditions: chromatographic, Kromasil 100 C18 (4.6 mm × 40 mm, 3 μm), linear gradient 2 to 100% B over 12 min, 1 mL/min; A 0.1% aqueous TFA, B 0.1% TFA in CH3CN; used as indicator of relative hydrophobicity
# In short: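 Reversed-phase HPLC on Kromasil 100 C18 (4.6 × 40 mm, 3 μm), 0.1% TFA in water/acetonitrile, linear 2–100% B at 1 mL/min over 7 min (method A, UV 220 nm) or 12 min (method B). Retention time serves as relative hydrophobicity.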
# [2] = tested on: X. axonopodis pv. vesicatoria strain 206 on tomato plants (cv. Rio grande); experiment: Bacterial spot of tomato, whole-plant infection assay; assay type: in vivo; conditions: peptide sprayed at 125 μM 24 h before inoculation with 10^8 CFU/mL, severity 13 days after inoculation, two independent experiments, three replicates of three plants, Tukey's test P < 0.05
# Experimental: The effect of the peptide conjugates flg15-BP387, flg15-BP475, and PIP1-BP475 and the monomers flg15 and PIP1 to reduce bacterial spot infection, caused by X. axonopodis pv. vesicatoria, was tested in potted tomato plant assays (Fig. 4).
# FIG 4 Effect of the peptides on the bacterial spot of tomato plant severity. Two independent experiments were performed. Disease severity was evaluated in tomato plants 13 days after pathogen inoculation. A nontreated control (NTC) and a treatment with copper oxychloride were included as references. Values correspond to the mean disease severity of three replicates of three plants per each treatment, and error bars represent the confidence interval (α = 0.05). […] The photographs show the symptoms observed in nontreated (A) and flg15-BP475-treated (B) plants.
# The efficacy of peptides in bacterial spot of tomato suppression was determined using whole-plant infection assays with tomato plants (cv. Rio grande) inoculated with X. axonopodis pv. vesicatoria strain 206. Tomato plants (4 weeks old) were sprayed with a hand sprayer (Herkules; Nuair, Robassomero, Italy) with 6 mL of an aqueous suspension of flg15-BP387, flg15-BP475, PIP1-BP475, flg15, and PIP1 at 125 μM. An NTC was included by spraying plants with water. A treatment with 70% copper oxychloride at 2 g/L (Cuprocol; Syngenta, Spain) was also included as a positive control. After 24 h, treated plants were spray-inoculated until the runoff point (6 mL) with a suspension of X. axonopodis pv. vesicatoria at 10^8 CFU/mL mixed with diatomaceous earth at 1 mg/mL. Plants were incubated under controlled greenhouse conditions (25 ± 2°C, 16 h light; 15 ± 2°C, 8 h dark; 60% relative humidity). The experimental design consisted of three replicates of three plants per treatment. Two independent experiments were performed. Severity of infections was determined per each replicate after 13 days of pathogen inoculation ([71]). A severity index, ranging from 0 to 4 (0, no symptoms; 1, necrosis/lesions up to 25% of the leaf surface; 2, necrosis/lesions on 25 to 50% of the leaf surface; 3, severe necrosis/lesions on 50 to 75% of the leaf surface; and 4, severe necrosis/lesions on >75% of the leaf surface), was determined for each of the leaves (with 4 to 5 leaflets) of a plant, and it was used to calculate the disease severity index per plant according to the formula
# where S is the severity of the infections per plant, Si is the severity index for each leaf, and n is the number of leaves measured, which is multiplied by the maximum severity index (i.e., 4). Then, the mean of the severity index of the three plants of each replicate was calculated. The effect of peptide treatments on plant material infection was determined using analysis of variance (ANOVA). […]
Compound,"tR (min), HPLC retention time (method B) [1] [min]",Effect on severity of bacterial spot of tomato [2]
CCCC(=O)NCCCC[C@H](NC(=O)[C@H](CCCCN)NC(=O)[C@H](CC(C)C)NC(=O)[C@@H](NC(=O)[C@H](CCCCN)NC(=O)[C@H](CCCCN)NC(=O)[C@@H](Cc1ccccc1)NC(=O)[C@H](CC(C)C)NC(=O)[C@H](CCCCN)NC(=O)[C@H](CCCCN)NC(=O)[C@H](C)NC(=O)[C@@H](NC(=O)[C@H](CCC(N)=O)NC(=O)[C@H](CC(C)C)NC(=O)CNC(=O)[C@H](C)NC(=O)[C@H](C)NC(=O)[C@H](CC(=O)O)NC(=O)[C@H](CC(=O)O)NC(=O)[C@H](CCCCN)NC(=O)[C@H](C)NC(=O)[C@H](CO)NC(=O)[C@H](CC(N)=O)NC(=O)[C@@H](NC(=O)[C@H](CCCNC(=N)N)NC(C)=O)[C@@H](C)CC)[C@@H](C)CC)[C@@H](C)CC)C(=O)N[C@@H](CC(C)C)C(N)=O [flg15-BP475] (Ac-RINSAKDDAAGLQIAKKL[dF]KKILKK(Butyryl)L-NH2),6.79,"decreased the severity of the disease compared to treatment with flg15, this reduction being significant in one of the experiments; also recorded: showed the same or more efficacy in reducing disease infection than treatment with copper oxychloride"
"RINSAKDDAAGLQIA-OH [flg15, plant defense elicitor peptide, 15 amino acids of the N-terminal conserved domain of bacterial flagellin; monomer]",–,significantly reduced the severity of bacterial spot of tomato compared to the nontreated control in both experiments
"YGIHTH-NH2 [PIP1, plant defense elicitor peptide identified through combinatorial chemistry; monomer]",–,only reduced the severity of the disease in one of the experiments
CCCC(=O)NCCCC[C@H](NC(=O)[C@H](CCCCN)NC(=O)[C@H](CC(C)C)NC(=O)[C@@H](NC(=O)[C@H](CCCCN)NC(=O)[C@H](CCCCN)NC(=O)[C@@H](Cc1ccccc1)NC(=O)[C@H](CC(C)C)NC(=O)[C@H](CCCCN)NC(=O)[C@H](CCCCN)NC(=O)[C@H](Cc1c[nH]cn1)NC(=O)[C@@H](NC(=O)[C@H](Cc1c[nH]cn1)NC(=O)[C@@H](NC(=O)CNC(=O)[C@H](Cc1ccc(O)cc1)NC(C)=O)[C@@H](C)CC)[C@@H](C)O)[C@@H](C)CC)C(=O)N[C@@H](CC(C)C)C(N)=O [PIP1-BP475] (Ac-YGIHTHKKL[dF]KKILKK(Butyryl)L-NH2),5.55,"showed the same efficacy in reducing the disease as their respective monomers flg15 and PIP1, except for PIP1-BP475 in one of the experiments"
